In brackets after ≈: the same amount, converted by molar mass.
Key:
Test in all cases: In vitro antibacterial evaluation: minimum inhibitory concentration (MIC), broth dilution method
Assay type in all cases: cell-based
Escherichia coli = system: Escherichia coli
How it was run: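 Inoculum: 5×10^5 CFU/mL. Range: 64-0.06 μg/mL. Medium: Muller-Hinton II […]; NCCLS M7-A2 broth dilution. Endpoint: lowest concentration inhibiting growth. Strains include methicillin-, penicillin- and/or vancomycin-resistant clinical isolates.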

Streptococcus sp. = system: Streptococcus sp.
How it was run: (§1)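 First, organisms are seeded at 5×10^5 CFU/mL into Muller-Hinton II […]. Next, antibiotic is applied across 64-0.06 μg/mL by broth dilution (NCCLS M7-A2). Finally, the lowest inhibitory concentration is recorded as MIC.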

Enterococcus sp. = system: Enterococcus sp.
How it was run: as §1

Staphylococcus sp. = system: Staphylococcus sp.
How it was run: as §1

[1] = broth dilution, inoculum 5×10^5 CFU/mL, 18 hours at 35° C.
[2] = broth dilution, 5×10^5 CFU/mL, 18 hours at 35° C.

Compound: CC(c1ccccc1)C1NC(=O)CNC(=O)C(CO)NC(=O)C(CC2CNC(=N)N2C2OC(CO)C(O)C(O)C2O)NC(=O)C(CC2CNC(=N)N2)NC(=O)C(Cc2ccc(OC3OC(CO)C(OC4OC5COC(c6ccc(OCc7ccccc7)cc6)OC5C(O)C4O)C(O)C3O)cc2)NC1=O (stereo not drawn) [Example 191]
- MIC Escherichia coli (ATCC 25922) (Escherichia coli; Escherichia coli (ATCC 25922), 18 hours at 35° C.): 64 µg/mL (≈ 43.9 µM)
- MIC Escherichia coli (GC 4559) (Escherichia coli; Escherichia coli (GC 4559), 18 hours at 35° C.): 64 µg/mL (≈ 43.9 µM)
- MIC Escherichia coli (GC 4560) (Escherichia coli; Escherichia coli (GC 4560), 18 hours at 35° C.): 8 µg/mL (≈ 5.49 µM)
- MIC Streptococcus agalactiae (GC 4564) (Streptococcus sp.; Streptococcus agalactiae (GC 4564), 18 hours at 35° C.): 2 µg/mL (≈ 1.37 µM)
- MIC Streptococcus pneumoniae (ATCC 6301) (Streptococcus sp.; Streptococcus pneumoniae (ATCC 6301), 18 hours at 35° C.): 1 µg/mL (≈ 0.686 µM)
- MIC Streptococcus pneumoniae (GC 1894) (Streptococcus sp.; Streptococcus pneumoniae (GC 1894), 18 hours at 35° C.): 0.25 µg/mL (≈ 0.172 µM)
- MIC Streptococcus pneumoniae (GC 4565) (Streptococcus sp.; Streptococcus pneumoniae (GC 4565), 18 hours at 35° C.): 2 µg/mL (≈ 1.37 µM)
- MIC Streptococcus pyogenes (GC 4563) (Streptococcus sp.; Streptococcus pyogenes (GC 4563), 18 hours at 35° C.): 2 µg/mL (≈ 1.37 µM)
- MIC Streptococcus agalactiae (GC 4564) (Streptococcus sp.; [1]): 2 µg/mL (≈ 1.37 µM)
- MIC Streptococcus pneumoniae (ATCC 6301) (Streptococcus sp.; [1]): 1 µg/mL (≈ 0.686 µM)
- MIC Streptococcus pneumoniae (GC 1894) (Streptococcus sp.; [1]): 0.25 µg/mL (≈ 0.172 µM)
- MIC Streptococcus pneumoniae (GC 4565) (Streptococcus sp.; [1]): 2 µg/mL (≈ 1.37 µM)
- MIC Streptococcus pyogenes (GC 4563) (Streptococcus sp.; [1]): 2 µg/mL (≈ 1.37 µM)
- MIC Enterococcus avium (GC 4558) (Enterococcus sp.; Enterococcus avium (GC 4558), 18 hours at 35° C.): 4 µg/mL (≈ 2.74 µM)
- MIC Enterococcus faecalis (ATCC 29212) (Enterococcus sp.; Enterococcus faecalis (ATCC 29212), 18 hours at 35° C.): 16 µg/mL (≈ 11 µM)
- MIC Enterococcus faecalis (GC 2242) (Enterococcus sp.; Enterococcus faecalis (GC 2242), 18 hours at 35° C.): 8 µg/mL (≈ 5.49 µM)
- MIC Enterococcus faecalis (GC 2691) (Enterococcus sp.; Enterococcus faecalis (GC 2691), 18 hours at 35° C.): 8 µg/mL (≈ 5.49 µM)
- MIC Enterococcus faecalis (GC 3059) (Enterococcus sp.; Enterococcus faecalis (GC 3059), 18 hours at 35° C.): 8 µg/mL (≈ 5.49 µM)
- MIC Enterococcus faecalis (GC 4552) (Enterococcus sp.; Enterococcus faecalis (GC 4552), 18 hours at 35° C.): 16 µg/mL (≈ 11 µM)
- MIC Enterococcus faecalis (GC 4553) (Enterococcus sp.; Enterococcus faecalis (GC 4553), 18 hours at 35° C.): 8 µg/mL (≈ 5.49 µM)
- MIC Enterococcus faecalis (GC 4554) (Enterococcus sp.; Enterococcus faecalis (GC 4554), 18 hours at 35° C.): 16 µg/mL (≈ 11 µM)
- MIC Enterococcus faecalis (GC 6189) (Enterococcus sp.; Enterococcus faecalis (GC 6189), 18 hours at 35° C.): 8 µg/mL (≈ 5.49 µM)
- MIC Enterococcus faecium (GC 2243) (Enterococcus sp.; Enterococcus faecium (GC 2243), 18 hours at 35° C.): 8 µg/mL (≈ 5.49 µM)
- MIC Enterococcus faecium (GC 4556) (Enterococcus sp.; Enterococcus faecium (GC 4556), 18 hours at 35° C.): 8 µg/mL (≈ 5.49 µM)
- MIC Enterococcus faecium (GC 4557) (Enterococcus sp.; Enterococcus faecium (GC 4557), 18 hours at 35° C.): 4 µg/mL (≈ 2.74 µM)
- MIC Enterococcus avium (GC 4558) (Enterococcus sp.; [1]): 4 µg/mL (≈ 2.74 µM)
- MIC Enterococcus faecalis (ATCC 29212) (Enterococcus sp.; [1]): 16 µg/mL (≈ 11 µM)
- MIC Enterococcus faecalis (GC 2242) (Enterococcus sp.; [1]): 8 µg/mL (≈ 5.49 µM)
- MIC Enterococcus faecalis (GC 2691) (Enterococcus sp.; [1]): 8 µg/mL (≈ 5.49 µM)
- MIC Enterococcus faecalis (GC 3059) (Enterococcus sp.; [1]): 8 µg/mL (≈ 5.49 µM)
- MIC Enterococcus faecalis (GC 4552) (Enterococcus sp.; [1]): 16 µg/mL (≈ 11 µM)
- MIC Enterococcus faecalis (GC 4553) (Enterococcus sp.; [1]): 8 µg/mL (≈ 5.49 µM)
- MIC Enterococcus faecalis (GC 4554) (Enterococcus sp.; [1]): 16 µg/mL (≈ 11 µM)
- MIC Enterococcus faecalis (GC 6189) (Enterococcus sp.; [1]): 8 µg/mL (≈ 5.49 µM)
- MIC Enterococcus faecium (GC 2243) (Enterococcus sp.; [1]): 8 µg/mL (≈ 5.49 µM)
- MIC Enterococcus faecium (GC 4556) (Enterococcus sp.; [1]): 8 µg/mL (≈ 5.49 µM)
- MIC Enterococcus faecium (GC 4557) (Enterococcus sp.; [1]): 4 µg/mL (≈ 2.74 µM)
- MIC Staphylococcus aureus (ATCC 29213) (Staphylococcus sp.; strain ATCC 29213): 4 µg/mL (≈ 2.74 µM)
- MIC Staphylococcus aureus (GC 1131) (Staphylococcus sp.; strain GC 1131): 8 µg/mL (≈ 5.49 µM)
- MIC Staphylococcus aureus (GC 3051) (Staphylococcus sp.; strain GC 3051): 8 µg/mL (≈ 5.49 µM)
- MIC Staphylococcus aureus (GC 3053) (Staphylococcus sp.; strain GC 3053): 8 µg/mL (≈ 5.49 µM)
- MIC Staphylococcus aureus (GC 4541) (Staphylococcus sp.; strain GC 4541): 4 µg/mL (≈ 2.74 µM)
- MIC Staphylococcus aureus (GC 4542) (Staphylococcus sp.; strain GC 4542): 4 µg/mL (≈ 2.74 µM)
- MIC Staphylococcus aureus-SMITH (GC 4543) (Staphylococcus sp.; strain GC 4543): 4 µg/mL (≈ 2.74 µM)
- MIC Staphylococcus aureus (GC 4544) (Staphylococcus sp.; strain GC 4544): 8 µg/mL (≈ 5.49 µM)
- MIC Staphylococcus aureus (GC 4545) (Staphylococcus sp.; strain GC 4545): 4 µg/mL (≈ 2.74 µM)
- MIC Staphylococcus haemolyticus (GC 4546) (Staphylococcus sp.; strain GC 4546): 4 µg/mL (≈ 2.74 µM)
- MIC Coagulase Negative Staphylococcus (GC 4547) (Staphylococcus sp.; strain GC 4547): 8 µg/mL (≈ 5.49 µM)
- MIC Coagulase Negative Staphylococcus (GC 4548) (Staphylococcus sp.; strain GC 4548): 4 µg/mL (≈ 2.74 µM)
- MIC Coagulase Negative Staphylococcus (GC 4549) (Staphylococcus sp.; strain GC 4549): 4 µg/mL (≈ 2.74 µM)
- MIC Coagulase Negative Staphylococcus (GC 4551) (Staphylococcus sp.; strain GC 4551): 4 µg/mL (≈ 2.74 µM)
- MIC Coagulase Negative Staphylococcus (GC 6257) (Staphylococcus sp.; strain GC 6257): 4 µg/mL (≈ 2.74 µM)

Compound: Cyclo[glycyl-β-methylphenylalanyl-O-[4-O-[4,6-O-β-(carboxymethoxy)benzylidene]hexopyranosyl]hexonyranosyl]tyrosyl-3-(2-iminoimidazolidin-4-yl)seryl-3-(3-hexopyranosyl-2-iminoimidazolidin-4-yl)serylseryl] [Example 166]
- MIC Escherichia coli (ATCC 25922) (Escherichia coli; strain ATCC 25922): >64 µg/mL
- MIC Escherichia coli (GC 4559) (Escherichia coli; strain GC 4559): >64 µg/mL
- MIC Escherichi coli (GC 4560) (Escherichia coli; strain GC 4560): 2 µg/mL
- MIC Streptococcus pneumoniae (ATCC 6301) (Streptococcus sp.; [1]): 1 µg/mL
- MIC Streptococcus pneumoniae (GC 1894) (Streptococcus sp.; [1]): 1 µg/mL
- MIC Streptococcus pneumoniae (ATCC 6301) (Streptococcus sp.; strain ATCC 6301): 1 µg/mL
- MIC Streptococcus pneumoniae (GC 1894) (Streptococcus sp.; strain GC 1894): 1 µg/mL
- MIC Enterococcus avium (GC 4558) (Enterococcus sp.; [1]): 32 µg/mL
- MIC Enterococcus faecalis (ATCC 29212) (Enterococcus sp.; [1]): 32 µg/mL
- MIC Enterococcus faecalis (GC 2242) (Enterococcus sp.; [1]): 32 µg/mL
- MIC Enterococcus faecalis (GC 6189) (Enterococcus sp.; [1]): 32 µg/mL
- MIC Enterococcus faecium (GC 2243) (Enterococcus sp.; [1]): 32 µg/mL
- MIC Enterococcus faecium (GC 4556) (Enterococcus sp.; [1]): 32 µg/mL
- MIC Enterococcus faecalis (ATCC 29212) (Enterococcus sp.; strain ATCC 29212): 32 µg/mL
- MIC Enterococcus faecalis (GC 2242) (Enterococcus sp.; strain GC 2242): 32 µg/mL
- MIC Enterococcus faecium (GC 2243) (Enterococcus sp.; strain GC 2243): 32 µg/mL
- MIC Enterococcus faecium (GC 4556) (Enterococcus sp.; strain GC 4556): 32 µg/mL
- MIC Enterococcus avium (GC 4558) (Enterococcus sp.; strain GC 4558): 32 µg/mL
- MIC Enterococcus faecalis (GC 6189) (Enterococcus sp.; strain GC 6189): 32 µg/mL
- MIC Coagulase Negative Staphylococcus (GC 4547) (Staphylococcus sp.; [2]): 4 µg/mL
- MIC Coagulase Negative Staphylococcus (GC 4548) (Staphylococcus sp.; [2]): 4 µg/mL
- MIC Coagulase Negative Staphylococcus (GC 4549) (Staphylococcus sp.; [2]): 4 µg/mL
- MIC Coagulase Negative Staphylococcus (GC 6257) (Staphylococcus sp.; [2]): 4 µg/mL
- MIC Staphylococcus aureus (ATCC 29213) (Staphylococcus sp.; [2]): 8 µg/mL
- MIC Staphylococcus aureus (GC 1131) (Staphylococcus sp.; [2]): 8 µg/mL
- MIC Staphylococcus aureus (GC 4541) (Staphylococcus sp.; [2]): 8 µg/mL
- MIC Staphylococcus aureus-SMITH (GC 4543) (Staphylococcus sp.; [2]): 4 µg/mL
- MIC Staphylococcus aureus (ATCC 29213) (Staphylococcus sp.; strain ATCC 29213, broth dilution, 18 hours at 35° C.): 8 µg/mL
- MIC Staphylococcus aureus (GC 1131) (Staphylococcus sp.; strain GC 1131, broth dilution, 18 hours at 35° C.): 8 µg/mL
- MIC Staphylococcus aureus (GC 4541) (Staphylococcus sp.; strain GC 4541, broth dilution, 18 hours at 35° C.): 8 µg/mL
- MIC Staphylococcus aureus-SMITH (GC 4543) (Staphylococcus sp.; strain GC 4543, broth dilution, 18 hours at 35° C.): 4 µg/mL
- MIC Coagulase Negative Staphylococcus (GC 4547) (Staphylococcus sp.; strain GC 4547, broth dilution, 18 hours at 35° C.): 4 µg/mL
- MIC Coagulase Negative Staphylococcus (GC 4548) (Staphylococcus sp.; strain GC 4548, broth dilution, 18 hours at 35° C.): 4 µg/mL
- MIC Coagulase Negative Staphylococcus (GC 4549) (Staphylococcus sp.; strain GC 4549, broth dilution, 18 hours at 35° C.): 4 µg/mL
- MIC Coagulase Negative Staphylococcus (GC 6257) (Staphylococcus sp.; strain GC 6257, broth dilution, 18 hours at 35° C.): 4 µg/mL
